The source of these data is US9139596B2, “Cyclic prodrugs of duocarmycin analogs” (The Scripps Research Institute, priority 2012, dated 2015).

The subject of series [1] is L1210 murine leukemia cells implanted ip. As to conditions: previously established; cited from earlier work.
Series [2] shares this test system. Nature of the series: In vivo antitumor activity (L1210, ip). As to conditions: for Surviving Mice: live animals after 250 days. The procedure: Therefore, the in vivo antitumor activity of (+)-6 was assessed alongside seco-CBI-indole2 (4) in an antitumor model consisting of L1210 murine leukemia cells implanted ip into […] which has been used historically as an initial antitumor model for comparisons in this class.^11,12,14,15 A dose range of 300 to 9000 μg/kg for prodrug (+)-6 (scaled to its in vitro cytotoxic activity IC50) and 60 to 500 μg/kg for seco-CBI-indole2 (4) and a dosing schedule (administered three times ip on days 1, 5, and 9) for both compounds was employed.
B6D2F1 mice were injected intraperitoneal (i.p.) with syngeneic L1210 cells (1×10^6) on day 0. Ten mice were randomly assigned to control vehicle or treatment groups for compounds (+)-4 and (+)-6 at doses of 60, 100, 250, and 500 μg/kg/inj for (+)-4 or 300, 1000, 3000, and 9000 μg/kg/inj for (+)-6. Compounds (+)-4 and (+)-6 were formulated in 100% DMSO, and injected i.p. on study days 1, 5, and 9. Following injection of tumor cells, animals were monitored daily and weighed two times per week. Percent survival (T/C) for treated and control groups were determined by dividing the total survival days for each treatment group by the total survival days for the control group and multiplying ×100. All animal studies were carried out in the animal facilities of The University of Kansas Medical Center with strict adherence to the guidelines of the IACUC Animal Welfare Committee of KUMC (IACUC approval #2009-1837).

The subject of series [3] is L1210 murine leukemia cell line. Kind of series: In vitro cytotoxic activity (cell growth inhibition), L1210. It is filed as cell-based. The protocol: In Vitro Cytotoxic Activity. Both (+)- and ent-(−)-6 and their N-Boc precursors 16 were tested for cell growth inhibition in a cytotoxic assay with the L1210 murine leukemia cell line.
The conditions of series [4]: human, plasma; cited from earlier work.
Series [5] deals with L1210 murine leukemia cell line. Conditions: L1210, natural enantiomer, literature ref 9; cited from earlier work.
The conditions of series [6]: calf serum; cited from earlier work.
The nature of a further series: Solvolysis of 21. In kind it is physicochemical. Conditions: 25° C., UV 255 nm; for half-life: CH3OH / aqueous citrate-phosphate buffer, read-out: solvolysis t1/2 (converted); for solvolysis rate constant k: CH3OH. The procedure:
Compound 21 was dissolved in CH3OH (1.5 mL). […] After mixing, the solvolysis solutions were stoppered and kept at 25° C. in the dark. The UV spectrum of the solutions was measured 3-4 times in the first two days and once a day for 2-4 weeks. The UV monitoring was continued until no further change was detectable. The long-wavelength absorption at 380 nm and short-wavelength absorption at 255 nm were monitored. The solvolysis rate constant and half-life were calculated from the data recorded at the short wavelength (255 nm) from the least square treatment of the slopes of plots of time versus ln [(AFinal−Ainitial)/(Afinal−A)].

Series [7] can be described thus: Chemical reactivity of N-Boc-prodrug 16 under acidic, basic and nucleophilic conditions. In kind it is physicochemical. The procedure: In order to determine the ability of the free drug to be released under physiological conditions, the chemical reactivity of N-Boc-prodrug 16 was assessed under a variety of acidic, basic, and nucleophilic conditions.
The mark [8] stands for this setting: 60 μg/kg i.p. on days 1, 5, and 9.
Where [9] appears, read: 100 μg/kg i.p. on days 1, 5, and 9.
The mark [10] stands for this setting: 250 μg/kg i.p. on days 1, 5, and 9.
The mark [11] stands for this setting: 500 μg/kg i.p. on days 1, 5, and 9.
[12] abbreviates: Mus musculus, L1210, read-out: In vitro IC50 L1210 natural, natural (S)-enantiomer, Table 4.
Setting [13] is: Mus musculus, L1210, read-out: In vitro IC50 L1210 unnatural, unnatural (R)-enantiomer, Table 4.
Setting [14] is: natural (S)-enantiomer, Table 4.
Where [15] appears, read: Mus musculus, L1210, read-out: IC50 L1210 natural, natural enantiomer, Table 2.
Setting [16] is: Mus musculus, L1210, read-out: IC50 L1210 unnatural, unnatural enantiomer, Table 2.
Setting [17] is: pH 1 buffer (: 0.2 M Na2HPO4: H2O 4:1:20).
The mark [18] stands for this setting: pH 2 buffer (1.0 M citric acid: 0.2 M Na2HPO4: H2O 4:1:20).

Like-named read-outs stand apart in the source and are kept apart here. A value given as a limit tells only on which side of the number the result lay.

For orientation: IC50 means the concentration at which inhibition is half-maximal. In the case of `O=C(Nc1ccc2[nH]c(C(=O)N3C[C@@H](CCl)c4c3cc(O)c3ccccc43)cc2c1)c1cc2ccccc2[nH]1` [Compound 4, seco-CBI-indole2, reference compound], the optimal dose range in series [1] is 0.06 to 0.1 mg/kg. Besides, the “MSP (Mean Survival Period)” value in series [2] (setting [8]) is reported as over 34.7 days; in series [2] (setting [9]), 6.4 days; in series [2] (setting [10]), 3.7 days; in series [2] (setting [11]), 3.0 days. Moreover, the “T/C (Treated/Control MSP x 100)” value was over 197 in series [2] (setting [8]), 36 in series [2] (setting [9]), 21 in series [2] (setting [10]) and 17 in series [2] (setting [11]). Further, the “Surviving Mice” value is 1/10 in series [2] (setting [8]), 0/10 in series [2] (setting [9]), 0/10 in series [2] (setting [10]) and 0/10 in series [2] (setting [11]). In addition, the “toxicity leading to premature death of the animals” value in series [2] (doses of 100-500 μg/kg i.p. on days 1, 5, and 9) is listed as “toxic”. Further, the IC50 in series [3] (L1210, free drug, natural enantiomer, read-out: IC50) is 0.03 nM; in series [3] (natural (S)-enantiomer, Table 4, read-out: In vitro IC50 L1210 natural) it was 0.03 nM; in series [3] (natural enantiomer, Table 2, read-out: IC50 L1210 natural), 0.03 nM; in series [3] (unnatural (R)-enantiomer, Table 4, read-out: In vitro IC50 L1210 unnatural), 0.9 nM; in series [3] (unnatural enantiomer, Table 2, read-out: IC50 L1210 unnatural), 0.9 nM.
As for `COc1c(O)c2c(c3cc(C(=O)N4CCc5c4c(O)c(OC)c4[nH]c(C(=O)N6CC7CC78C6=CC(=O)c6[nH]cc(C)c68)cc54)[nH]c13)CCN2C(N)=O` (stereo not drawn) [Compound 2, CC-1065, reference compound], the IC50 in series [3] (Mus musculus, L1210, natural (S)-enantiomer, Table 4, read-out: In vitro IC50 L1210 natural) is 0.02 nM; in series [3] (Mus musculus, L1210, natural enantiomer, Table 2, read-out: IC50 L1210 natural), 0.02 nM; in series [3] (Mus musculus, L1210, unnatural (R)-enantiomer, Table 4, read-out: In vitro IC50 L1210 unnatural), 0.02 nM; in series [3] (Mus musculus, L1210, unnatural enantiomer, Table 2, read-out: IC50 L1210 unnatural), 0.02 nM.
In the case of `O=C(Nc1ccc2[nH]c(C(=O)N3C[C@@H](CCl)c4c3cc3c5c(cccc45)NC(=S)O3)cc2c1)c1cc2ccccc2[nH]1` [Compound 25, (S)—N-(2-(10-(chloromethyl)-5-thioxo-5,8,9,10-tetrahydro-4H-pyrrolo[3′,2′,5,6]naphtho[1,8-de][1,3]oxazine-8-carbonyl)-1H-indol-5-yl)-1H-indole-2-carboxamide], the IC50 in series [3] (setting [12]) worked out at 0.29 nM; in series [3] (setting [13]), 62 nM. Also, in series [3] (setting [14]), the “In vitro IC50 L1210 natural” value was “in the nanomolar range”.
In the case of `COC(=O)c1cc2c([nH]1)C(=O)C=C1N(C(=O)c3cc4cc(OC)c(OC)c(OC)c4[nH]3)CC3CC123` (stereo not drawn) [Compound 1, Duocarmycin SA, reference compound], the IC50 in series [3] (setting [15]) was 0.01 nM; in series [3] (setting [16]) it was 0.1 nM; in series [3] (setting [12]), 0.01 nM; in series [3] (setting [13]), 0.1 nM.
As to `O=C(Nc1ccc2[nH]c(C(=O)N3C[C@@H](CCl)c4c3cc3c5c(cccc45)N=C(SCCN4C(=O)c5ccccc5C4=O)O3)cc2c1)c1cc2ccccc2[nH]1` [Compound 29, (S)—N-(2-(10-(chloromethyl)-5-((2-(1,3-dioxoisoindolin-2-yl)ethyl)thio)-9,10-dihydro-8H-pyrrolo[3′,2′:5,6]naphtho[1,8-de][1,3]oxazine-8-carbonyl)-1H-indol-5-yl)-1H-indole-2-carboxamide], the IC50 in series [3] (setting [12]) was under 100 nM; in series [3] (read-out: In vitro IC50 L1210 natural, natural (S)-enantiomer, Table 4) it was 83.6 nM.
With `CCN(CC)c1ccc2cc(C(=O)Nc3ccc4[nH]c(C(=O)N5C[C@@H](CCl)c6c5cc(OC(=O)Nc5ccccc5)c5[nH]cc(C)c65)cc4c3)oc2c1` [carzelesin], the t1/2 in series [4] was under 1 h.
Take `N=C1Nc2cccc3c4c(cc(c23)O1)N(C(=O)c1cc2cc(NC(=O)c3cc5ccccc5[nH]3)ccc2[nH]1)C[C@H]4CCl` [Compound 24, (S)—N-(2-(10-(chloromethyl)-5-imino-5,8,9,10-tetrahydro-4H-pyrrolo[3′,2′,5,6]naphtho[1,8-de][1,3]oxazine-8-carbonyl)-1H-indol-5-yl)-1H-indole-2-carboxamide]: the IC50 in series [3] (setting [12]) was 0.5 nM; in series [3] (setting [13]), 64 nM. The “In vitro IC50 L1210 natural” value in series [3] (setting [14]) is recorded as “in the nanomolar range”.
Regarding `CC(C)(C)OC(=O)N1CC2CC23C1=CC(=O)c1ccccc13` (stereo not drawn) [N-Boc-CBI], the IC50 in series [5] was 80 nM.
`COC(=O)c1c(C)[nH]c2c(OC(=O)N3CCN(C)CC3)cc3c(c12)[C@H](CBr)CN3C(=O)c1cc2cc(OC)c(OC)c(OC)c2[nH]1` [KW-2189]: the t1/2 in series [6] is given as 20 h.
With `CC(C)(C)OC(=O)N1CC2CC23C1=CC(=O)c1c(N)cccc13` (stereo not drawn) [Compound 21, N-tert-Butyloxycarbonyl-5-amino-1,2,9,9a-tetrahydrocyclopropa[c]benzo[e]indole-4-one], the half-life in “Solvolysis of 21” (setting [17]) is 8.52 h; in the series “Solvolysis of 21” (setting [18]), 40.3 h. In addition, the “solvolysis rate constant k” value in the series “Solvolysis of 21” (setting [17]) is 1.5e-05 s⁻¹; in the series “Solvolysis of 21” (setting [18]), 5e-06 s⁻¹.
With `Nc1cccc2c1C(=O)C=C1N(C(=O)c3cc4cc(NC(=O)c5cc6ccccc6[nH]5)ccc4[nH]3)CC3CC123` (stereo not drawn) [Compound 20, N-(2-(5-Amino-4-oxo-1,2,9,9a-tetrahydrocyclopropa[c]benzo[e]indole-2-carbonyl)-1H-indol-5-yl)-1H-indole-2-carboxamide], the “fold less active than 4 (active enantiomer)” value in series [3] (L1210, inferred from the racemate IC50) is reported as 3-4 fold. In addition, the IC50 in series [3] (L1210, racemic parent drug, read-out: IC50) is 0.21 nM.
With `CC(C)(C)OC(=O)N1C[C@@H](CCl)c2c1cc1c3c(cccc23)NC(=O)O1` [Compound 16, tert-Butyl 10-(Chloromethyl)-5-oxo-9,10-dihydro-4H-pyrrolo[3′,2′:5,6]naphtho[1,8-de][1,3]oxazine-8(5H)-carboxylate], the “fold less active than N-Boc-CBI” value in series [3] (L1210) is 50-100 fold. Besides, the IC50 in series [3] (setting [15]) is 4900 nM; in series [3] (setting [16]) it was 5800 nM. For the same compound, in series [7] (1:1 TFA:CH2Cl2, 4 N HCl in EtOAc, 48 h at 23° C., Boc group cleaved), the “stability of the cyclic carbamate to hydrolysis under acidic conditions” value is “stable”. Also, the “stability to BnNH2” value in series [7] (BnNH2 (100 equiv) in MeOH, 24 h) is “rapidly cleaved”; in series [7] (BnNH2 in THF), “stable”. In addition, the “stability in the presence of nucleophiles BnSH and BnOH” value in series [7] (BnSH and BnOH (100 equiv) in MeOH and THF at 23° C. for 48 h) is recorded as “completely stable”.
